Laboratory results published in PubChem BioAssay (NCI).
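Exposure lasted 48 hours, with cells grown in 96-well plates and compounds tested at five concentrations. GI50 marks 50% less growth. At the TGI there is no net growth.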

Assays:
Assay in all cases: inhibition of tumour cell growth, NCI panel, 48 h
UO-31 renal = system: UO-31 renal
SN12C renal = system: SN12C renal
M14 melanoma = system: M14 melanoma
NCI/ADR-RES ovarian = system: NCI/ADR-RES ovarian
CCRF-CEM leukemia = system: CCRF-CEM leukemia
SK-OV-3 ovarian = system: SK-OV-3 ovarian
IGROV1 ovarian = system: IGROV1 ovarian
NCI-H23 lung = system: NCI-H23 lung
UACC-62 melanoma = system: UACC-62 melanoma
OVCAR-5 ovarian = system: OVCAR-5 ovarian
KM12 colon = system: KM12 colon
NCI-H226 lung = system: NCI-H226 lung
HCT-15 colon = system: HCT-15 colon
MDA-MB-435 = system: MDA-MB-435
TK-10 renal = system: TK-10 renal
SK-MEL-28 melanoma = system: SK-MEL-28 melanoma
UACC-257 melanoma = system: UACC-257 melanoma
DU-145 prostate = system: DU-145 prostate
RPMI-8226 leukemia = system: RPMI-8226 leukemia
CAKI-1 renal = system: CAKI-1 renal
OVCAR-8 ovarian = system: OVCAR-8 ovarian
HOP-62 NSCLC = system: HOP-62 NSCLC
COLO 205 colon = system: COLO 205 colon
EKVX NSCLC = system: EKVX NSCLC
SF-295 CNS = system: SF-295 CNS
SNB-75 CNS = system: SNB-75 CNS
SR leukemia = system: SR leukemia
HCT-116 colon = system: HCT-116 colon
SF-268 CNS = system: SF-268 CNS
MCF7 breast = system: MCF7 breast
OVCAR-3 ovarian = system: OVCAR-3 ovarian
U251 CNS = system: U251 CNS
SK-MEL-2 melanoma = system: SK-MEL-2 melanoma
HS 578T breast = system: HS 578T breast
MDA-MB-231 breast = system: MDA-MB-231 breast
SF-539 CNS = system: SF-539 CNS
A549 NSCLC = system: A549 NSCLC
786-0 renal = system: 786-0 renal
OVCAR-4 ovarian = system: OVCAR-4 ovarian
BT-549 breast = system: BT-549 breast
RXF 393 renal = system: RXF 393 renal
T-47D breast = system: T-47D breast
PC-3 prostate = system: PC-3 prostate
SNB-19 CNS = system: SNB-19 CNS
MOLT-4 leukemia = system: MOLT-4 leukemia
NCI-H460 lung = system: NCI-H460 lung
SK-MEL-5 melanoma = system: SK-MEL-5 melanoma
MALME-3M melanoma = system: MALME-3M melanoma
ACHN renal = system: ACHN renal
SW-620 colon = system: SW-620 colon
LOX IMVI melanoma = system: LOX IMVI melanoma
HT29 colon = system: HT29 colon
HOP-92 NSCLC = system: HOP-92 NSCLC
HCC-2998 colon = system: HCC-2998 colon
HL-60(TB) leukemia = system: HL-60(TB) leukemia
NCI-H522 lung = system: NCI-H522 lung
K-562 leukemia = system: K-562 leukemia

CC1=NN(c2nc(N)nc(/C=C\c3ccc([N+](=O)[O-])s3)n2)C(C)(C)C1
GI50 (UO-31 renal): > 100 µM
TGI (UO-31 renal): > 100 µM
GI50 (SN12C renal): > 100 µM
TGI (SN12C renal): > 100 µM
GI50 (M14 melanoma): > 100 µM
TGI (M14 melanoma): > 100 µM
GI50 (NCI/ADR-RES ovarian): > 100 µM
TGI (NCI/ADR-RES ovarian): > 100 µM
GI50 (CCRF-CEM leukemia): 77.5 µM
TGI (CCRF-CEM leukemia): > 100 µM
GI50 (SK-OV-3 ovarian): > 100 µM
TGI (SK-OV-3 ovarian): > 100 µM
GI50 (IGROV1 ovarian): > 100 µM
TGI (IGROV1 ovarian): > 100 µM
GI50 (NCI-H23 lung): > 100 µM
TGI (NCI-H23 lung): > 100 µM
GI50 (UACC-62 melanoma): > 100 µM
TGI (UACC-62 melanoma): > 100 µM
GI50 (OVCAR-5 ovarian): > 100 µM
TGI (OVCAR-5 ovarian): > 100 µM
GI50 (KM12 colon): > 100 µM
TGI (KM12 colon): > 100 µM
GI50 (NCI-H226 lung): > 100 µM
TGI (NCI-H226 lung): > 100 µM
GI50 (HCT-15 colon): > 100 µM
TGI (HCT-15 colon): > 100 µM
GI50 (MDA-MB-435): 62.8 µM
TGI (MDA-MB-435): > 100 µM
GI50 (TK-10 renal): > 100 µM
TGI (TK-10 renal): > 100 µM
GI50 (SK-MEL-28 melanoma): > 100 µM
TGI (SK-MEL-28 melanoma): > 100 µM
GI50 (UACC-257 melanoma): > 100 µM
TGI (UACC-257 melanoma): > 100 µM
GI50 (DU-145 prostate): > 100 µM
TGI (DU-145 prostate): > 100 µM
GI50 (RPMI-8226 leukemia): > 100 µM
TGI (RPMI-8226 leukemia): > 100 µM
GI50 (CAKI-1 renal): > 100 µM
TGI (CAKI-1 renal): > 100 µM
GI50 (OVCAR-8 ovarian): > 100 µM
TGI (OVCAR-8 ovarian): > 100 µM
GI50 (HOP-62 NSCLC): > 100 µM
TGI (HOP-62 NSCLC): > 100 µM
GI50 (COLO 205 colon): > 100 µM
TGI (COLO 205 colon): > 100 µM
GI50 (EKVX NSCLC): > 100 µM
TGI (EKVX NSCLC): > 100 µM
GI50 (SF-295 CNS): > 100 µM
TGI (SF-295 CNS): > 100 µM
GI50 (SNB-75 CNS): 29.9 µM
TGI (SNB-75 CNS): > 100 µM
GI50 (SR leukemia): 49.9 µM
TGI (SR leukemia): > 100 µM
GI50 (HCT-116 colon): > 100 µM
TGI (HCT-116 colon): > 100 µM
GI50 (SF-268 CNS): > 100 µM
TGI (SF-268 CNS): > 100 µM
GI50 (MCF7 breast): > 100 µM
TGI (MCF7 breast): > 100 µM
GI50 (OVCAR-3 ovarian): > 100 µM
TGI (OVCAR-3 ovarian): > 100 µM
GI50 (U251 CNS): > 100 µM
TGI (U251 CNS): > 100 µM
GI50 (SK-MEL-2 melanoma): > 100 µM
TGI (SK-MEL-2 melanoma): > 100 µM
GI50 (HS 578T breast): > 100 µM
TGI (HS 578T breast): > 100 µM
GI50 (MDA-MB-231 breast): > 100 µM
TGI (MDA-MB-231 breast): > 100 µM
GI50 (SF-539 CNS): > 100 µM
TGI (SF-539 CNS): > 100 µM
GI50 (A549 NSCLC): > 100 µM
TGI (A549 NSCLC): > 100 µM
GI50 (786-0 renal): > 100 µM
TGI (786-0 renal): > 100 µM
GI50 (OVCAR-4 ovarian): > 100 µM
TGI (OVCAR-4 ovarian): > 100 µM
GI50 (BT-549 breast): > 100 µM
TGI (BT-549 breast): > 100 µM
GI50 (RXF 393 renal): > 100 µM
TGI (RXF 393 renal): > 100 µM
GI50 (T-47D breast): > 100 µM
TGI (T-47D breast): > 100 µM
GI50 (PC-3 prostate): > 100 µM
TGI (PC-3 prostate): > 100 µM
GI50 (SNB-19 CNS): > 100 µM
TGI (SNB-19 CNS): > 100 µM
GI50 (MOLT-4 leukemia): > 100 µM
TGI (MOLT-4 leukemia): > 100 µM
GI50 (NCI-H460 lung): > 100 µM
TGI (NCI-H460 lung): > 100 µM
GI50 (SK-MEL-5 melanoma): 40.9 µM
TGI (SK-MEL-5 melanoma): > 100 µM
GI50 (MALME-3M melanoma): > 100 µM
TGI (MALME-3M melanoma): > 100 µM
GI50 (ACHN renal): > 100 µM
TGI (ACHN renal): > 100 µM
GI50 (SW-620 colon): > 100 µM
TGI (SW-620 colon): > 100 µM
GI50 (LOX IMVI melanoma): > 100 µM
TGI (LOX IMVI melanoma): > 100 µM
GI50 (HT29 colon): 56.4 µM
TGI (HT29 colon): > 100 µM
GI50 (HOP-92 NSCLC): > 100 µM
TGI (HOP-92 NSCLC): > 100 µM
GI50 (HCC-2998 colon): > 100 µM
TGI (HCC-2998 colon): > 100 µM
GI50 (HL-60(TB) leukemia): > 100 µM
TGI (HL-60(TB) leukemia): > 100 µM
GI50 (NCI-H522 lung): > 100 µM
TGI (NCI-H522 lung): > 100 µM
GI50 (K-562 leukemia): 40.9 µM
TGI (K-562 leukemia): > 100 µM
